Converted amounts (≈) assume the structure as drawn.
How the values were obtained:
Assay type in all cases: cell-based
[1] = tested on: Proteus vulgaris 718 (wild)
Summary of the method: (§1)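 Growth promotion under iron limitation in indicator strains blocked in siderophore or aromatic biosynthesis, or lacking siderophore receptors or iron-transport components; Proteus mirabilis 12 is wild type. Controls: ferrioxamine E for Pseudomonas, ferrioxamine G and enterobactin for Salmonella, ferrichrome for E. coli. + and (+) denote non-specific growth promotion.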

[2] = tested on: Salmonella typhimurium TA 2700
Summary of the method: as §1

E. coli AB 2847 = tested on: E. coli AB 2847
Summary of the method: as §1

[3] = tested on: Klebsiella pneumoniae KN 4401; conditions: Klebsiella KN 4401
Summary of the method: as §1

[4] = tested on: Pseudomonas aeruginosa 690
Summary of the method: as §1

[5] = tested on: Yersinia enterocolitica WAH; conditions: Y. enterocol. WAH
[6] = tested on: Pseudomonas aeruginosa K 407; conditions: Pseudomonas aeruginosa K407
Summary of the method: as §1

[7] = tested on: Salmonella typhimurium enb-7
Summary of the method: as §1

[8] = tested on: Proteus mirabilis 12 (wild)
Summary of the method: as §1

[9] = tested on: Pseudomonas aeruginosa PAO 6609
Summary of the method: as §1

[10] = tested on: Morganella morganii SBK3 (wild)
Summary of the method: as §1

E. coli AB2847 tonB+ = tested on: E. coli AB2847 tonB+
E. coli ATCC 25922 = test: Microdilution test (MIC)
Description: (§2) The minimum inhibiting concentrations (MICs) were determined for the following bacterial strains: Pseudomonas aeruginosa NCTC 10701, NCTC 10662, SG 137, ATCC 27853, KW 799 WT and KW 799/61, E. coli DCO, DC2 and ATCC 25922, Serratia marcescens SG 621; Salmonella gallinarum ATCC 9184, Klebsiella pneumoniae ATCC 10031 and SG 117.

[11] = tested on: Klebsiella pneumoniae ATCC 10031; test: Microdilution test (MIC)
Description: as §2

[12] = tested on: Klebsiella pneumoniae SG 117; test: Microdilution test (MIC)
Description: as §2

[13] = tested on: Serratia marcescens SG 621; test: Microdilution test (MIC)
Description: as §2

[14] = tested on: Pseudomonas aeruginosa ATCC 27853; test: Microdilution test (MIC); conditions: P. aeruginosa ATCC 27853
Description: as §2

[15] = tested on: Pseudomonas aeruginosa NCTC 10701; test: Microdilution test (MIC); conditions: P. aeruginosa NCTC 10701
Description: as §2

[16] = tested on: Pseudomonas aeruginosa SG 137; test: Microdilution test (MIC); conditions: P. aeruginosa SG 137
Description: as §2

[17] = tested on: Pseudomonas aeruginosa Oxa6 (plasmid-coded β-lactamase); conditions: concentration 100 μg/ml; P. aeruginosa OXA 6
[18] = tested on: Klebsiella pneumoniae SG 117; test: Agar diffusion test; conditions: concentration 100 μg/ml
[19] = tested on: Pseudomonas aeruginosa NCTC 10662; test: Agar diffusion test; conditions: concentration 100 μg/ml; P. aeruginosa NCTC 10662
E. coli DC2 = test: microbe, parasite or virus in culture
Summary of the method: (§3)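 Broth microdilution MIC determination; paired strains (Pseudomonas KW 799 WT vs /61, E. coli DC0 vs DC2) used to assess the effect of improved penetration capacity on compound efficacy.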

[20] = tested on: Pseudomonas aeruginosa SG 137 (carbenicillin-resistant); test: Agar diffusion test; conditions: concentration 100 μg/ml; P. aeruginosa SG 137
[21] = tested on: Pseudomonas aeruginosa KW 799 WT (wild type); test: Agar diffusion test; conditions: concentration 100 μg/ml; P. aeruginosa KW799/WT
E. coli mutant KB5 ompC− = tested on: E. coli mutant KB5 ompC−
Description: (§4) The efficacy against β-lactamase formers and against multi-resistant germs is therefore due to a new type of mechanism for overcoming the penetration resistance, by means of which the ratio of active ingredient to enzyme in the bacterial cell is influenced so that not all antibiotic molecules are inactivated before they reach their target.

E. coli mutant KB4 ompF− = tested on: E. coli mutant KB4 ompF−
Description: as §4

[22] = tested on: E. coli mutant BR185 tonB−
[23] = tested on: E. coli DC2 (penetration mutant); conditions: concentration 100 μg/ml
[24] = tested on: Salmonella gallinarum ATCC 9184; conditions: concentration 100 μg/ml; Salmonella galinarum ATCC 9184
[25] = tested on: Pseudomonas aeruginosa ATCC 9027 (wild type); test: Agar diffusion test; conditions: concentration 100 μg/ml; P. aeruginosa ATCC 9027
[26] = tested on: Stenotrophomonas maltophilia GN 12873; test: Agar diffusion test; conditions: concentration 100 μg/ml
[27] = tested on: Salmonella gallinarum ATCC 9184; test: microbe, parasite or virus in culture; conditions: Salmonella gallinarum ATCC9184
Description: as §2

[28] = tested on: Pseudomonas aeruginosa KW 799/61 (penetration mutant); conditions: concentration 100 μg/ml; P. aeruginosa KW799/61
E. coli DC0 (wild type) = test: Agar diffusion test; conditions: concentration 100 μg/ml
[29] = tested on: Pseudomonas aeruginosa NCTC 10701; test: Agar diffusion test; conditions: concentration 100 μg/ml; P. aeruginosa NCTC 10701
[30] = tested on: Stenotrophomonas maltophilia IMET 10402; test: Agar diffusion test; conditions: concentration 100 μg/ml
[31] = tested on: Pseudomonas aeruginosa NPS1 (plasmid-coded β-lactamase); conditions: concentration 100 μg/ml; P. aeruginosa NPS 1
[32] = tested on: E. coli mutant PLB3268 ompF++; conditions: E. coli mutant PLB3268 ompF++ (ompF super-expressed)
Description: as §4
PLB268: ompF- was super-expressed.

[33] = tested on: Pseudomonas aeruginosa KW 799/61; test: Microdilution test (MIC)
Summary of the method: as §3

[34] = tested on: Pseudomonas aeruginosa KW 799 WT; test: Microdilution test (MIC); conditions: P. aeruginosa KW 799/WT
Summary of the method: as §3

`O=C(O)c1ccc(O)c(N=Cc2cccc(O)c2O)c1` [Substance 3] was tested, and the “Growth areas of siderophore indicator strains (diameter)” value (from here on “Growth areas”) [1] was 18 mm, the “Growth areas” value [2] was 0 mm and the “Growth areas” value (E. coli AB 2847) was 22 mm. For the same molecule, the “Growth areas” value [3] was 32 mm, the “Growth areas” value [4] was 0 mm and the “Growth areas” value [5] was 0 mm. For the same molecule, the “Growth areas” value [6] was 0 mm, the “Growth areas” value [7] was 28 mm and the “Growth areas” value [8] was 18 mm. The “Growth areas” value [9] was 0 mm and the “Growth areas” value [10] was 20 mm.

`O=C(O)c1ccc(N=Cc2cccc(O)c2O)c(O)c1` [Substance 5] was tested, and the “Growth areas” value [1] was 21 mm, the “Growth areas” value [2] was 0 mm and the “Growth areas” value (E. coli AB 2847) was 15 mm. The “Growth areas” value [3] was 0 mm, the “Growth areas” value [4] was 0 mm and the “Growth areas” value [5] was 0 mm. For the same molecule, the “Growth areas” value [6] was 0 mm, the “Growth areas” value [7] was 0 mm and the “Growth areas” value [8] was 19 mm. The “Growth areas” value [9] was 0 mm and the “Growth areas” value [10] was 21 mm.

In the case of `CC(=O)Oc1cccc(C(=O)N[C@@H](C)C(=O)N[C@@H](C(=O)N[C@@H]2C(=O)N3[C@@H]2SC(C)(C)[C@@H]3C(=O)O)c2ccccc2)c1OC(C)=O` [Substance 27, N-[L-2-(2,3-Diacetoxybenzoylamino)-propionyl]-ampicillin], the “inhibition spot diameter in agar diffusion test” value (E. coli AB2847 tonB+) is reported as 7 mm, the “MIC values, microdilution test” value (E. coli ATCC 25922) is reported as 6.25 µg/mL (≈ 9.76 µM) and the “MIC values, microdilution test” value [11] is reported as 0.4 µg/mL (≈ 0.624 µM). The “MIC values, microdilution test” value [12] was 50 µg/mL (≈ 78 µM), the “MIC values, microdilution test” value [13] was 50 µg/mL (≈ 78 µM) and the “MIC values, microdilution test” value [14] was 6.25 µg/mL (≈ 9.76 µM). The “MIC values, microdilution test” value [15] was 0.4 µg/mL (≈ 0.624 µM), the “MIC values, microdilution test” value [16] was 3.12 µg/mL (≈ 4.87 µM) and the “inhibition spot diameter in the agar diffusion test” value [17] was 12 mm. For the same molecule, the “inhibition spot diameter in the agar diffusion test” value [18] was 17 mm, the “inhibition spot diameter in the agar diffusion test” value [19] was 16 mm and the “MIC values, microdilution test” value (E. coli DC2) was 0.4 µg/mL (≈ 0.624 µM). The “inhibition spot diameter in the agar diffusion test” value [20] was 22 mm, the “inhibition spot diameter in the agar diffusion test” value [21] was 30 mm and the “inhibition spot diameter in agar diffusion test” value (E. coli mutant KB5 ompC−) was 7.5 mm. The “inhibition spot diameter in agar diffusion test” value (E. coli mutant KB4 ompF−) was 8.5 mm, the “inhibition spot diameter in agar diffusion test” value [22] was 1 mm and the “inhibition spot diameter in the agar diffusion test” value [23] was 30 mm. The “inhibition spot diameter in the agar diffusion test” value [24] was 24 mm, the “inhibition spot diameter in the agar diffusion test” value [25] was 19 mm and the “inhibition spot diameter in the agar diffusion test” value [26] was 22 mm. For the same molecule, the “MIC values, microdilution test” value [27] was 1.56 µg/mL (≈ 2.43 µM), the “inhibition spot diameter in the agar diffusion test” value [28] was 37 mm and the “inhibition spot diameter in the agar diffusion test” value (E. coli DC0 (wild type)) was 21 mm. The “inhibition spot diameter in the agar diffusion test” value [29] was 0 mm, the “inhibition spot diameter in the agar diffusion test” value [30] was 29 mm and the “inhibition spot diameter in the agar diffusion test” value [31] was 10 mm. The “inhibition spot diameter in agar diffusion test” value [32] was 14 mm, the “MIC values, microdilution test” value [33] was 0.2 µg/mL (≈ 0.312 µM) and the “MIC values, microdilution test” value [34] was 0.78 µg/mL (≈ 1.22 µM).

For `CC(=O)Oc1cccc(C(=O)Nc2ccccc2C(=O)N[C@@H](C(=O)N[C@@H]2C(=O)N3[C@@H]2SC(C)(C)[C@@H]3C(=O)O)c2ccccc2)c1OC(C)=O` [Substance 28, N-[2-(2,3-Diacetoxybenzoylamino)-benzoyl]-ampicillin], the “inhibition spot diameter in agar diffusion test” value (E. coli AB2847 tonB+) was 8.5 mm, the “MIC values, microdilution test” value [12] was 25 µg/mL (≈ 36.3 µM) and the “MIC values, microdilution test” value [13] was 6.25 µg/mL (≈ 9.07 µM). For the same molecule, the “MIC values, microdilution test” value [15] was 0.78 µg/mL (≈ 1.13 µM), the “MIC values, microdilution test” value [16] was 1.56 µg/mL (≈ 2.27 µM) and the “inhibition spot diameter in the agar diffusion test” value [17] was 19 mm. For the same molecule, the “inhibition spot diameter in the agar diffusion test” value [18] was 17 mm, the “inhibition spot diameter in the agar diffusion test” value [19] was 17 mm and the “MIC values, microdilution test” value (E. coli DC2) was 0.4 µg/mL (≈ 0.581 µM). The “inhibition spot diameter in the agar diffusion test” value [20] was 20 mm, the “inhibition spot diameter in the agar diffusion test” value [21] was 27 mm and the “inhibition spot diameter in agar diffusion test” value (E. coli mutant KB5 ompC−) was 11 mm. For the same molecule, the “inhibition spot diameter in agar diffusion test” value (E. coli mutant KB4 ompF−) was 11.5 mm, the “inhibition spot diameter in agar diffusion test” value [22] was 0 mm and the “inhibition spot diameter in the agar diffusion test” value [23] was 27 mm. The “inhibition spot diameter in the agar diffusion test” value [25] was 18 mm, the “inhibition spot diameter in the agar diffusion test” value [26] was 20 mm and the “MIC values, microdilution test” value [27] was 1.56 µg/mL (≈ 2.27 µM). For the same molecule, the “inhibition spot diameter in the agar diffusion test” value [28] was 31 mm, the “inhibition spot diameter in the agar diffusion test” value (E. coli DC0 (wild type)) was 23 mm and the “inhibition spot diameter in the agar diffusion test” value [30] was 24 mm. The “inhibition spot diameter in the agar diffusion test” value [31] was 18 mm, the “inhibition spot diameter in agar diffusion test” value [32] was 13 mm and the “MIC values, microdilution test” value [33] was 0.4 µg/mL (≈ 0.581 µM). The “MIC values, microdilution test” value [34] was 1.56 µg/mL (≈ 2.27 µM).
